According to ChEMBL document CHEMBL1138689, “Synthesis of 5a-carba-hexopyranoses and hexopyranosylamines, as well as 5a,5a'-dicarbadisaccharides, from 3,8-dioxatricyclo[4.2.1.0(2,4)]nonan-9-ol: glycosidase inhibitory activity of N-substituted 5a-carba-beta-gluco- and beta-galactopyranosylamines, and derivatives thereof” (Bioorg Med Chem Lett, 2004):

Assays:
[1] = Inhibition of Alpha-galactosidase of green coffee beans
[2] = Inhibition of Alpha-galactosidase of green coffee beans; […]
[3] = target: T1, Beta-galactosidase (Bos taurus, UniProt Q58D55); assay: Inhibition of Beta-galactosidase of bovine liver; […]
T1 sequence (Q58D55 whole entry): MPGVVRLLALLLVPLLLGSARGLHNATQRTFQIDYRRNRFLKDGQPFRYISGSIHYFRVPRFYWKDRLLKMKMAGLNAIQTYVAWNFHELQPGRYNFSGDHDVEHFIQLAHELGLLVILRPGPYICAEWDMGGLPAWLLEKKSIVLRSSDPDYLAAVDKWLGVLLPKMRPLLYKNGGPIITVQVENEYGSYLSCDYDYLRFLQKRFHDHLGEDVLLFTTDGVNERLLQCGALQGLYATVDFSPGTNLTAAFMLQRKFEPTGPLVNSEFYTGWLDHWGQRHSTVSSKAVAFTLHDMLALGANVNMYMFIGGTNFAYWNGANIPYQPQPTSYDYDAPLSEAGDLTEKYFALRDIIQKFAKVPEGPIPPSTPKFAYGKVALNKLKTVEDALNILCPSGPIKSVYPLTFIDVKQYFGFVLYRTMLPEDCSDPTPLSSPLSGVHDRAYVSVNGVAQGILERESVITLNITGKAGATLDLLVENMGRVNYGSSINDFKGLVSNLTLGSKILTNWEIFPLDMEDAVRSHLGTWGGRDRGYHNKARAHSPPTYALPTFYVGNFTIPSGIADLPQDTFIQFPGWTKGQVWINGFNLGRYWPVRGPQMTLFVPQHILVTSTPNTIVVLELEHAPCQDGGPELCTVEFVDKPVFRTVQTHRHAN

[4] = Inhibition of Alpha-galactosidase of green coffee beans; NI=no inhibition
[5] = Inhibition of Alpha-Glucosidase of Bakers yeast; NI=no inhibition; parameters: species or system Saccharomyces cerevisiae
[6] = target: T2, Tissue alpha-L-fucosidase (Bos taurus, UniProt Q2KIM0); assay: Inhibition of Alpha-fucosidase of bovine kidney; NI=no inhibition
T2 sequence (Q2KIM0 whole entry): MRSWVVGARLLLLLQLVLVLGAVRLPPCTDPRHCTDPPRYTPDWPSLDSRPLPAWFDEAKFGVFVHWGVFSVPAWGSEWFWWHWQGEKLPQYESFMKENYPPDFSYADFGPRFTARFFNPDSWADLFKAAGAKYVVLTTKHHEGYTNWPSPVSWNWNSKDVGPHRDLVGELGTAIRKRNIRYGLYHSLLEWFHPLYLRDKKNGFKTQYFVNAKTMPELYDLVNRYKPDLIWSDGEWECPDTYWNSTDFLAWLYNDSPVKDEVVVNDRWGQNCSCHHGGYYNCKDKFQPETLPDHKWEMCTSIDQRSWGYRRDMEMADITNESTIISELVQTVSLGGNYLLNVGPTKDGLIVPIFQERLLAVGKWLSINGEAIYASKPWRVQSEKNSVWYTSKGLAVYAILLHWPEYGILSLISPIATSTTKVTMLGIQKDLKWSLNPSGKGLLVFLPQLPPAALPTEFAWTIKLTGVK

[7] = Compound was tested for the inhibition of alpha-Glucosidase of Bakers yeast; NI denotes no inhibition; parameters: species or system Saccharomyces cerevisiae

SMILES	IC50 [1] [µM]	IC50 [2] [µM]	IC50 [3]	IC50 [4]	IC50 [5]	IC50 [6]	IC50 [7]
N[C@H]1C[C@H](CO)[C@@H](O)[C@H](O)[C@H]1O	2.8						
CC(=O)NC1CC(CO)C(O)C(O)C1O (centres undefined)		> 1000					
CCCCCCCCNC1CC(C)C(O)C(O)C1O (centres undefined)		> 1000					
C=C1CC(NCCCCCCCC)C(O)C(O)C1O (centres undefined)		> 1000					
OC1[C@H]2CO[C@H]1[C@@H](O)[C@H](NCCc1ccccc1)C2 (single isomer, unassigned)			No inhibition	Not Active		Not Active	Not Active

Continued, in another order:

IC50 [1] [µM]	IC50 [2] [µM]	IC50 [3]	IC50 [4]	IC50 [5]	IC50 [6]	SMILES	IC50 [7]
	> 1000					CCCCCCCCNC1CC(CO)C(O)C(O)C1O (centres undefined)	
1.2						CO[C@@H]1CC2COC(C1O)[C@H]2NC1CC(CO)C(O)C(O)C1O (some centres undefined)	
		No inhibition	Not Active	Not Active	Not Active	CCCCCCCCCCCCN[C@@H]1C[C@@H]2CO[C@H](C2O)[C@H]1O (single isomer, unassigned)	
		No inhibition	Not Active	Not Active	Not Active	OC1[C@H]2CO[C@H]1[C@@H](O)[C@H](NCc1ccccc1)C2 (single isomer, unassigned)	
		No inhibition	Not Active	Not Active	Not Active	CCCCCCCCN[C@@H]1C[C@@H]2CO[C@H](C2O)[C@H]1O (single isomer, unassigned)	
		No inhibition	Not Active	Not Active	Not Active	CCCCCCCCCCN[C@@H]1C[C@@H]2CO[C@H](C2O)[C@H]1O (single isomer, unassigned)	
		No inhibition	Not Active	Not Active	Not Active	CCCCN[C@@H]1C[C@@H]2CO[C@H](C2O)[C@H]1O (single isomer, unassigned)	
		No inhibition	Not Active	Not Active	Not Active	CCCCCCN[C@@H]1C[C@@H]2CO[C@H](C2O)[C@H]1O (single isomer, unassigned)	
